Measured values published in ChEMBL document CHEMBL1152590, “Computational modeling of novel inhibitors targeting the Akt pleckstrin homology domain” (Bioorg Med Chem, 2009).

System: Caco-2
Experiment: Permeability across human Caco-2 cells

Q: Which logPapp does the source give for `CCCc1nc2c(C)cc(-c3nc4ccccc4n3C)cc2n1Cc1ccc(-c2ccccc2C(=O)O)cc1` here?
A: Its logPapp is -4.82.

Q: `CCOC(=O)[C@H](CCc1ccccc1)N[C@@H](C)C(=O)N1CCC[C@H]1C(=O)O` was tested. Which logPapp did it give?
A: The logPapp was -5.64.

Q: Which logPapp does the source give for `CN/C(=N/CCSCc1nc[nH]c1C)NC#N` [CIMETIDINE] here?
A: Its logPapp is -5.89.

Q: Which logPapp does the source give for `Clc1cccc(Cl)c1N=C1NCCN1` [CLONIDINE] here?
A: Its logPapp is -4.59.

Q: How did the logPapp turn out when `NCCc1ccc(O)c(O)c1` [DOPAMINE] was run?
A: The logPapp was -5.03.

Q: With `CNC[C@H](O)c1ccc(O)c(O)c1` [EPINEPHRINE] as the molecule, how does the logPapp read?
A: Its logPapp is -6.02.

Q: How did the logPapp turn out when `CN1CCC[C@H]1c1cccnc1` [NICOTINE] was run?
A: The logPapp was -4.71.

Q: Which logPapp does the source give for `C=CCOc1ccccc1OCC(O)CNC(C)C` (stereo unspecified) [OXPRENOLOL] here?
A: Its logPapp is -4.68.

Q: Which logPapp does the source give for `c1ccc(C2(N3CCCCC3)CCCCC2)cc1` [PHENCYCLIDINE] here?
A: Its logPapp is -4.61.

Q: `CC(C)NCC(O)COc1cccc2[nH]ccc12` (stereo unspecified) [PINDOLOL] was tested. Which logPapp did it give?
A: Its logPapp is -4.78.

Q: `CC(=O)[C@H]1CC[C@H]2[C@@H]3CCC4=CC(=O)CC[C@]4(C)[C@H]3CC[C@]12C` [PROGESTERONE] was tested. Which logPapp did it give?
A: Its logPapp is -4.37.

Q: Which logPapp does the source give for `CNC(=C[N+](=O)[O-])NCCSCc1ccc(CN(C)C)o1` [RANITIDINE] here?
A: Its logPapp is -6.31.

Q: With `O=C(O)c1ccccc1O` [SALICYLIC ACID] as the molecule, how does the logPapp read?
A: Its logPapp is -4.79.

Q: `O=C(O)c1cc(/N=N/c2ccc(S(=O)(=O)Nc3ccccn3)cc2)ccc1O` [SULFASALAZINE] was tested. Which logPapp did it give?
A: The logPapp was -6.33.

Q: Which logPapp does the source give for `Cn1c(=O)c2[nH]cnc2n(C)c1=O.O` [THEOPHYLLINE] here?
A: Its logPapp is -4.35.

Q: With `CC(C)(C)NC[C@H](O)COc1nsnc1N1CCOCC1` [TIMOLOL] as the molecule, how does the logPapp read?
A: Its logPapp is -4.85.
